What was measured:
[1] = molecular target: Tubulin (Bos taurus) (UniProt Q6B856+Q862L2+Q862F3); test: Inhibition of colchicine binding to tubulin was evaluated only when polymerization IC50 <=1.0 uM; type: protein assay
[2] = molecular target: Tubulin (Bos taurus, UniProt Q6B856+Q862L2+Q862F3); test: Inhibition of bovine tubulin polymerization; type: functional
[3] = tested on: HCT-116; test: Tested for in vitro tumor cell growth inhibition of colon cancer cell line HCT116; type: functional; conditions: Homo sapiens
[4] = tested on: K562; test: Tested for in vitro tumor cell growth inhibition of leukemia cell line K-562; type: functional; conditions: Homo sapiens
[5] = tested on: SK-MEL-5; test: Tested for in vitro tumor cell growth inhibition of melanoma cell line SK-Mel-5; type: functional; conditions: Homo sapiens
[6] = tested on: KM-20L2; test: Tested for in vitro tumor cell growth inhibition of colon cancer cell line […]; type: functional; conditions: Homo sapiens
[7] = tested on: SF-295; test: Tested for in vitro tumor cell growth inhibition of CNS tumor cell line SF-295; type: functional; conditions: Homo sapiens
[8] = tested on: SF-268; test: Tested for in vitro tumor cell growth inhibition of CNS tumor cell line SF-268; type: functional; conditions: Homo sapiens
[9] = tested on: OVCAR-3; test: Tested for in vitro tumor cell growth inhibition of ovarian cancer cell line OVCAR-3; type: functional; conditions: Homo sapiens
[10] = tested on: MDA-N; test: Tested for in vitro tumor cell growth inhibition of breast cancer cell line MDA-N; type: functional; conditions: Homo sapiens
[11] = tested on: RXF 393; test: Tested for in vitro tumor cell growth inhibition of renal cancer cell line RXF-393; type: functional; conditions: Homo sapiens
[12] = tested on: DU-145; test: Tested for in vitro tumor cell growth inhibition of prostate cancer cell line DU-145; type: functional; conditions: Homo sapiens
[13] = tested on: NCI-H226; test: Tested for in vitro tumor cell growth inhibition of non-small cell lung cancer cell line NCI-H226; type: functional; conditions: Homo sapiens
[14] = tested on: OVCAR-4; test: Tested for in vitro tumor cell growth inhibition of ovarian cancer cell line OVCAR-4; type: functional; conditions: Homo sapiens

Row | Structure (SMILES) | inhibition [1] [%] | IC50 [2] [nM] | GI50 [3] [nM] | GI50 [4] [nM] | GI50 [5] [nM] | GI50 [6] [nM] | GI50 [7] [nM] | GI50 [8] [nM] | GI50 [9] [nM] | GI50 [10] [nM] | GI50 [11] [nM] | GI50 [12] [nM] | GI50 [13] [nM] | GI50 [14] [nM]
1 | CN(C)c1cccc(-c2cc(O)c3cc4c(cc3n2)OCO4)c1 | 29 | 700 |  |  |  |  |  |  |  |  |  |  |  | 
2 | Oc1cccc(-c2cc(O)c3cc4c(cc3n2)OCO4)c1 | 26 | 470 | 1820 | 724 | 1480 | 3310 | 5500 | 2290 |  |  |  |  |  | 
3 | CCOc1cccc(-c2cc(O)c3cc4c(cc3n2)OCO4)c1 | 40 | 470 | 174 | 44.7 | 191 | 182 | 64.6 | 269 | 166 | 17.8 | 275 | 251 | 324 | 
4 | COc1cc([C@@H]2c3cc4c(cc3[C@H](O)[C@H]3COC(=O)[C@H]23)OCO4)cc(OC)c1OC | 84 |  |  |  |  |  |  |  |  |  |  |  |  | 
5 | Oc1cc(-c2cccc(C(F)(F)F)c2)nc2cc3c(cc12)OCO3 | 5 | 820 |  |  |  | 1380 |  |  |  |  |  |  |  | 
6 | COc1cccc(-c2cc(O)c3cc(Cl)ccc3n2)c1 | 16 | 700 |  |  |  |  |  |  |  |  |  |  |  | 
7 | COc1cccc(-c2cc(O)c3cc(NC(C)=O)ccc3n2)c1 |  | 2100 |  |  |  |  |  | 5500 |  |  |  |  |  | 
8 | Nc1ccc2nc(-c3cccc(Cl)c3)cc(O)c2c1 |  | 6100 |  |  |  | 3160 |  |  |  |  |  |  |  | > 100000
9 | CC(=O)Nc1ccc2nc(-c3cccc(F)c3)cc(O)c2c1 |  |  |  |  |  |  | 38900 | 25700 |  |  |  |  |  | 
10 | COc1cccc(-c2cc(O)c3cc(N4CCN(C)CC4)ccc3n2)c1 |  | 14000 | 437 | 537 | 912 | 1510 | 1820 | 1860 |  | 200 | 457 | 2510 | 1510 | > 10000
11 | Oc1cc(-c2cccc(Cl)c2)nc2cc3c(cc12)OCO3 | 45 | 370 |  |  | 209 | 269 |  |  |  |  |  |  |  | > 75900
12 | Oc1cc(-c2cccc(OC(F)(F)F)c2)nc2cc3c(cc12)OCO3 | 40 | 500 | 14.1 | 36.3 | 170 | 36.3 | 25.7 |  | 63.1 | < 10 | 40.7 | 45.7 | 195 | 25.7
13 | Nc1cccc(-c2cc(O)c3cc4c(cc3n2)OCO4)c1 | 16 | 730 | 479 | 891 | 933 | 708 | 2400 | 759 |  |  | 603 |  | 2190 | 38900
14 | Oc1cc(-c2cccc(Br)c2)nc2cc3c(cc12)OCO3 | 26 | 530 | 3390 | 3470 | 4370 | 3090 | 331 | 3020 | 4270 |  | 2400 |  | 3800 | > 100000
15 | Oc1cc(-c2cccc(OCc3ccccc3)c2)nc2cc3c(cc12)OCO3 | 26 | 450 | 389 | 363 | 282 | 224 | 447 | 12900 | 245 | 145 | 407 | 1100 | 229 | 
16 | CC(=O)Nc1ccc2nc(-c3cccc(Cl)c3)cc(O)c2c1 |  | 2300 |  |  |  |  |  |  |  |  |  |  |  | > 100000
17 | COc1ccc(CCc2cc(OC)c(OC)c(OC)c2)cc1O |  | 630 |  |  |  |  |  |  |  |  |  |  |  | 
18 | COc1cccc(-c2cc(O)c3cc(N(C)C)ccc3n2)c1 | 14 | 380 |  | 8.91 | 25.7 | 4.57 | 15.5 | 43.6 | 15.1 | 1.7 | 18.6 | 34.7 | 44.7 | 5500
19 | Oc1cc(-c2cccc(F)c2)nc2cc3c(cc12)OCO3 | 51 | 530 | 219 | 339 | 269 |  | 141 | 661 | 288 |  |  |  | 955 | 
20 | CNc1cccc(-c2cc(O)c3cc4c(cc3n2)OCO4)c1 | 17 | 650 | 245 | 398 | 447 | 331 | 324 | 5500 | 339 |  | 363 |  | 537 | 
21 | Oc1cc(-c2ccccc2)nc2cc3c(cc12)OCO3 | 26 | 630 |  |  |  |  |  |  |  |  |  |  |  | 
22 | COc1cccc(-c2cc(O)c3cc(N)ccc3n2)c1 |  | 8700 |  |  |  | 3470 |  |  |  |  |  |  |  | 
23 | COc1cccc(-c2cc(O)c3cc(N4CCOCC4)ccc3n2)c1 | 43 | 360 | 26.9 | 24.6 | 35.5 | 33.9 | 49 | 53.7 | 19.9 | 8.32 |  | 43.6 | 33.9 | 6310
24 | COc1cccc(-c2cc(O)c3cc(N4CCCC4)ccc3n2)c1 |  |  | < 1 | < 1 | < 1 | < 1 | < 1 | < 1 | < 1 | < 1 | < 1 | < 1 | < 1 | 2000
25 | Nc1ccc2nc(-c3cccc(C(F)(F)F)c3)cc(O)c2c1 |  | > 40000 | 52500 |  |  | 34700 |  |  |  |  |  | 43700 |  | 
26 | COc1cccc(-c2cc(O)c3cc4c(cc3n2)OCO4)c1 | 39 | 570 |  |  |  |  |  |  |  |  |  |  |  | 
27 | Oc1cc(-c2cccc(OC(F)(F)F)c2)nc2ccc(N3CCCC3)cc12 | 58 | 720 |  |  |  |  |  |  |  |  |  |  |  | 
